The subject of series [1] is K-562 cells. Briefly: antiproliferation assay, K-562. In kind it is cell-based. The note with it: Homo sapiens, K562. The method, then: (§1) For the antiproliferation assay, NCI-H460 (large cell lung carcinoma) or M14 (amelanotic melanoma) cells were grown in RPMI-1640 with 10% FBS supplemented with L-glutamine and HEPES. Cells were seeded into 96-well plates at 5×10^2 to 5×10^4 cells/well and allowed to adhere overnight; the medium was then removed. A stock solution of test compound in DMSO was diluted in medium to generate a series of working solutions. Aliquots (100 μl) of the working solutions were then added to the appropriate test wells to expose cells to the final concentrations of compound in a total volume of 100 μl. Seven different concentrations were tested, with 2-5 wells per concentration. Camptothecin was used as a positive control; wells containing vehicle without compound were used as negative controls. Plates were kept for 72 h in a 37° C., 5% CO2 incubator. After incubation, viable cells were detected with the CELLTITER 96 AQueous Non-Radioactive Cell Proliferation Assay (Promega), and IC50 values were determined using GraphPad Prism 5 software.
(§2) Antiproliferation of several of the active compounds was tested against additional cell lines.

For the next series, the system named is LOX-IMVI cells. Kind of series: antiproliferation assay, LOX-IMVI. It counts as cell-based. As to conditions: Homo sapiens.
A further series relates to NCI-H187 cells. Briefly: antiproliferation assay, NCI-H187. In kind it is cell-based. The note with it: Homo sapiens. As for the experimental part:
as §1, §2

Another series deals with OVCAR-3 cells. Kind of series: antiproliferation assay, OVCAR-3. It counts as cell-based. As to conditions: Homo sapiens. As for the experimental part: as §1, §2
Another series has as its system OVCAR-4 cells. Briefly: antiproliferation assay, OVCAR-4. It counts as cell-based. As to conditions: Homo sapiens. The method, then: as §1, §2
A further series deals with HCT-15 cells. Kind of series: antiproliferation assay, paclitaxel-resistant HCT-15. In kind it is cell-based. As to conditions: Homo sapiens. As for the experimental part:
as §1
Compound 4 was tested for antiproliferation activity against several paclitaxel-resistant human cancer cell lines.

For series [2], the system named is NCI-H522 (lung) xenograft tumors. Kind of series: tumor growth inhibition, NCI-H522 murine xenograft model. In kind it is in vivo, mice. As to conditions: IP 40 mg/kg, days 0,1,2,5,6,7,10,11,12. The method, then: (§3) Tumor growth inhibition of compound 4 was measured in several murine xenograft models, and the results of individual experiments are listed in Table 14. Tumors were initiated by subcutaneous injection of either tumor cells from cell culture or tumor fragments from continuous in vivo passage. When tumors reached volumes between approximately 100 and 200 mm^3, the mice were divided into vehicle and treatment groups. Compound or vehicle was administered by IP injection in a volume of 5-10 mL/kg.
(§4) Changes in tumor weight (delta weights) for each treated (T) and control (C) group are calculated for each day tumors are measured by subtracting the median tumor weight on the first day of treatment (staging day) from the median tumor weight on the specified observation day. These values are used to calculate a percent T/C as follows: % T/C=(delta T/delta C)×100. The optimal T/C is the minimal value obtained after the first treatment.

For series [3], the system named is LOX-IMVI (melanoma) xenograft tumors. Briefly: tumor growth inhibition, LOX-IMVI murine xenograft model. It counts as in vivo, mice. As for the experimental part:
as §3, §4

A further series deals with A549 cells. Kind of series: NCI-60 panel antiproliferation, A549. It counts as cell-based, human. As to conditions: Homo sapiens, NCI 60-cell panel. As for the experimental part: (§5) Bifidenone and Compound 37 were tested for antiproliferation activity against the NCI-60 panel of cancer cell lines. COMPARE analysis was then conducted to compare the activity “fingerprint” of bifidenone to those of known classes of compounds (Zhou, B.-N., Hoch, J. M., Johnson, R. K., Mattern, M. R., Eng, W.-K., Ma, J., Hecht, S. M., Newman, D. J., Kingston, D. G. I., 2000. Use of COMPARE Analysis to Discover New Natural Product Drugs: Isolation of Camptothecin and 9-Methoxycamptothecin from a New Source. Journal of Natural Products 63, 1273-1276.).

The test system of another series is CCRF-CEM cells. Briefly: NCI-60 panel antiproliferation, CCRF-CEM. In kind it is cell-based, human. The note with it: Homo sapiens, NCI 60-cell panel. As for the experimental part: as §5
The test system of a further series is DU-145 cells. Briefly: NCI-60 panel antiproliferation, DU-145. In kind it is cell-based, human. The note with it: Homo sapiens, NCI 60-cell panel. As for the experimental part: as §5
In another series the test system is EKVX cells. Kind of series: NCI-60 panel antiproliferation, EKVX. The note with it: Homo sapiens, NCI 60-cell panel. In kind it is cell-based, human. The method, then: as §5
The subject of a further series is HOP-92 cells. Briefly: NCI-60 panel antiproliferation, HOP-92. In kind it is cell-based, human. The note with it: Homo sapiens, NCI 60-cell panel. As for the experimental part:
as §5

Series [4] deals with K-562 cells. Kind of series: NCI-60 panel antiproliferation, K-562. As to conditions: Homo sapiens, K562, NCI 60-cell panel. It counts as cell-based, human. The method, then: as §5
The subject of a further series is MCF-7 cells. Briefly: NCI-60 panel antiproliferation, MCF-7. In kind it is cell-based, human. As to conditions: Homo sapiens, MCF7, NCI 60-cell panel. As for the experimental part:
as §5

The test system of another series is MDA-MB-468 cells. Briefly: NCI-60 panel antiproliferation, MDA-MB-468. In kind it is cell-based, human. As to conditions: Homo sapiens, NCI 60-cell panel. The method, then: as §5
Another series has as its system NCI-ADR/RES cells. Kind of series: NCI-60 panel antiproliferation, NCI-ADR/RES. It counts as cell-based, human. The note with it: Homo sapiens, NCI 60-cell panel. As for the experimental part:
as §5

The subject of another series is NCI-H460 cells. Briefly: NCI-60 panel antiproliferation, NCI-H460. It counts as cell-based, human. As to conditions: Homo sapiens, NCI 60-cell panel. The method, then: as §5
A further series relates to NCI-H522 cells. Kind of series: NCI-60 panel antiproliferation, NCI-H522. In kind it is cell-based, human. As to conditions: Homo sapiens, NCI 60-cell panel. As for the experimental part:
as §5

For another series, the system named is OVCAR-5 cells. Briefly: NCI-60 panel antiproliferation, OVCAR-5. In kind it is cell-based, human. As to conditions: Homo sapiens, NCI 60-cell panel. The method, then: as §5
For the next series, the system named is RXF-393 cells. Kind of series: NCI-60 panel antiproliferation, RXF-393. As to conditions: Homo sapiens, NCI 60-cell panel. It counts as cell-based, human. The method, then: as §5
The next series relates to SF-268 cells. Kind of series: NCI-60 panel antiproliferation, SF-268. It counts as cell-based, human. As to conditions: Homo sapiens, NCI 60-cell panel. The method, then: as §5
The subject of another series is SF-295 cells. Kind of series: NCI-60 panel antiproliferation, SF-295. In kind it is cell-based, human. As to conditions: Homo sapiens, NCI 60-cell panel. As for the experimental part:
as §5

Another series relates to SK-Mel-5 cells. Kind of series: NCI-60 panel antiproliferation, SK-MEL-5. In kind it is cell-based, human. The note with it: Homo sapiens, NCI 60-cell panel. As for the experimental part:
as §5

The next series deals with SNB-75 cells. Kind of series: NCI-60 panel antiproliferation, SNB-75. It counts as cell-based, human. The note with it: Homo sapiens, NCI 60-cell panel. The method, then:
as §5

Another series deals with SR cells. Briefly: NCI-60 panel antiproliferation, SR. It counts as cell-based, human. As to conditions: Homo sapiens, NCI 60-cell panel. The method, then: as §5
Another series relates to SW-620 cells. Briefly: NCI-60 panel antiproliferation, SW-620. It counts as cell-based, human. As to conditions: Homo sapiens, NCI 60-cell panel. As for the experimental part:
as §5

The subject of another series is T-47D cells. Kind of series: NCI-60 panel antiproliferation, T-47D. The note with it: Homo sapiens, T47D, NCI 60-cell panel. It counts as cell-based, human. The method, then:
as §5

A further series relates to UACC-257 cells. Kind of series: NCI-60 panel antiproliferation, UACC-257. It counts as cell-based, human. The note with it: Homo sapiens, NCI 60-cell panel. As for the experimental part:
as §5

The next series has as its system UO-31 cells. Kind of series: NCI-60 panel antiproliferation, UO-31. The note with it: Homo sapiens, NCI 60-cell panel. It counts as cell-based, human. As for the experimental part:
as §5

The test system of another series is 786-0 cells. Kind of series: NCI-60 panel antiproliferation, 786-0. In kind it is cell-based, human. The note with it: Homo sapiens, NCI 60-cell panel. As for the experimental part: as §5
[5] abbreviates: IP 30 mg/kg, days 0,1,2,3,4,5,6.

These results are taken from patent US9562031B1, “Phenethyldihydrobenzodioxolones and methods of use” (Sequoia Sciences, Inc., priority 2015, dated 2017).

For orientation: IC50 means the concentration that inhibits the measured activity by half. Read a low IC50 as greater potency in that assay.

For the compound `C=CC[C@H]1C[C@]2([C@H](C)Cc3cc(O)c(OC)cc3F)OCOC2=CC1=O` (relative stereo) [Compound 4, 6-allyl-7a-(1-(2-fluoro-5-hydroxy-4-methoxyphenyl)propan-2-yl)-7,7a-dihydrobenzo[d][1,3]dioxol-5(6H)-one], the IC50 was 13 nM in the series on K-562 cells [1]; 11 nM in the series on LOX-IMVI cells; 21 nM in the series with NCI-H187 cells; 12 nM with OVCAR-3 cells; 6.4 nM in the series on OVCAR-4 cells; < 5 nM in the series on HCT-15 cells. In addition, the “Maximum Mean Body Weight Loss” value is 5% in [2]; 7% in series [3] (IP 30 mg/kg, days 0,1,2,3,4,5); 6% in series [3] (setting [5]); 9% in [3] (IP 40 mg/kg, days 0,1,2,5,6,7). Also, the “Optimal T/C” value was 13% in series [2]; 31% in [3] (IP 30 mg/kg, days 0,1,2,3,4,5); 36% in series [3] (setting [5]); 39% in series [3] (IP 40 mg/kg, days 0,1,2,5,6,7).

Take `C=CC[C@H]1C[C@]2([C@@H](C)Cc3ccc(OC)c(F)c3)OCOC2=CC1=O` [Compound 37, (6S,7aR)-6-allyl-7a-((S)-1-(3-fluoro-4-methoxyphenyl)propan-2-yl)-7,7a-dihydrobenzo[d][1,3]dioxol-5(6H)-one]: the IC50 with A549 cells was 55 nM; in the series on CCRF-CEM cells it was 60 nM; in the series with DU-145 cells, 187 nM; in the series on EKVX cells, 149 nM; with HOP-92 cells, > 10000 nM; in the series on K-562 cells [4], 43 nM. Further, the IC50 stood at 63 nM in the series on MCF-7 cells; 59 nM with MDA-MB-468 cells; 47 nM in the series on NCI-ADR/RES cells; 49 nM in the series with NCI-H460 cells; 61 nM in the series on NCI-H522 cells; 119 nM in the series on OVCAR-5 cells. The IC50 in the series with RXF-393 cells was found to be 95 nM; in the series on SF-268 cells it was 623 nM; in the series with SF-295 cells, 48 nM; with SK-Mel-5 cells, 60 nM; in the series with SNB-75 cells it was 49 nM; in the series with SR cells, 14 nM. Moreover, the IC50 with SW-620 cells is 47 nM; in the series on T-47D cells, > 10000 nM; in the series on UACC-257 cells, 43 nM; in the series with UO-31 cells, 65 nM; in the series with 786-0 cells, 120 nM.
